Laboratory results from the supplement of paper PMC11061612.

Legend:
[1] = test system: NCI-H835 (Other Solid Carcinomas); assay: combination Emax (second highest fraction inhibited in the dose matrix, 72 h); higher = more inhibition; extreme values may be limits of the assay
Outline: (§1)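 Cell lines grown in DMEM/F12 or RPMI with 10% FBS were plated in 1536-well plates and held 24 hours at 37°C, 5% CO2 before 72 hours of exposure to two-drug dose matrices, with DMSO typically at 0.2%. CellTiter-Glo 2.0 luminescence gave viability, which was converted to inhibition. Vehicle wells were set to 0 and blank wells to 1. Combination Emax is the second-highest inhibition in the matrix, and Bliss excess is the observed combination effect minus the expected EA + EB − EA·EB, where EA and EB are the single-agent effects.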

[2] = test system: NCI-H835 (Other Solid Carcinomas); assay: Bliss excess, mean over the matrix (fraction); higher = more synergy
Outline: as §1

DK-MG (Glioblastoma) = assay: as above
Outline: as §1

[3] = test system: MDA-MB-175-VII (Breast Carcinoma); assay: as above
Outline: as §1

[4] = test system: SW1463 (Colorectal Carcinoma); assay: as above
Outline: as §1

[5] = test system: OVKATE (Ovarian Carcinoma); assay: as above
Outline: as §1

[6] = test system: SNU-1 (Gastric Carcinoma); assay: as above
Outline: as §1

SK-MEL-24 (Melanoma) = assay: as above
Outline: as §1

[7] = test system: TOV-21G (Ovarian Carcinoma); assay: as above
Outline: as §1

[8] = test system: BT-474 (Breast Carcinoma); assay: as above
Outline: as §1

[9] = test system: KNS-62 (Squamous Cell Lung Carcinoma); assay: as above
Outline: as §1

[10] = test system: NCI-H2023 (Non-Small Cell Lung Carcinoma); assay: as above
Outline: as §1

A375 (Melanoma) = assay: as above
Outline: as §1

C32 (Melanoma) = assay: as above
Outline: as §1

[11] = test system: HT-1197 (Bladder Carcinoma); assay: as above
Outline: as §1

[12] = test system: NCI-H1048 (Small Cell Lung Carcinoma); assay: as above
Outline: as §1
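For Bliss excess, mean over the matrix in this document: after 72 h of two-drug dosing.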

Row | Structure (SMILES) | combination Emax [1] | Bliss excess [2] | Bliss excess (DK-MG (Glioblastoma)) | Bliss excess [3] | Bliss excess [4] | Bliss excess [5] | Bliss excess [6] | Bliss excess (SK-MEL-24 (Melanoma)) | Bliss excess [7] | Bliss excess [8] | Bliss excess [9] | Bliss excess [10] | Bliss excess (A375 (Melanoma)) | Bliss excess (C32 (Melanoma)) | Bliss excess [11] | Bliss excess [12]
1 | COc1nnc2ccc(N3CCC(c4ccc(OCCN5CCN(C)C(=O)[C@H]5C)cc4)CC3)nn12 [AZD5153] + C[C@@H]1COCCN1C2=NC(=NC(=C2)C3(CC3)[S@](=N)(=O)C)C4=C5C=CNC5=NC=C4 [AZD6738] (first compound max 1 µM, 7x7, partner max 10 µM) | 0.727 | -0.0811 | -0.0073 | 0.0118 | -0.074 | -0.0027 | 0.0228 | -0.0037 | -0.0018 | 0.0788 | -0.018 | 0.0692 | 0.0552 | 0.0069 | -0.0082 | 0.029
2 | Cn1cnc2c(F)c(Nc3ccc(Br)cc3Cl)c(C(=O)NOCCO)cc21 [Selumetinib] + CCN(CCO)CCCOc1ccc2c(Nc3cc(CC(=O)Nc4cccc(F)c4)[nH]n3)ncnc2c1 [AZD2811] (first compound max 10 µM, 7x7, partner max 1 µM) | 0.177 | -0.0289 | -0.0736 | 0.0109 | 0.0162 | -0.0349 | 0.0767 | -0.0628 | 0.0139 | -0.0419 | -0.0104 | -0.0294 | -0.0274 | 0.0124 | -0.0073 | -0.0121
3 | C[C@@H]1COCCN1c1cc(C2([S@](C)(=N)=O)CC2)nc(-c2ccnc3[nH]ccc23)n1 [AZD6738] + C1CC(C1)(C(=O)[O-])C(=O)[O-].N.N.[Pt+2] [Carboplatin] (first compound max 10 µM, 7x7, partner max 10 µM) | 0.322 | -0.0529 |  | -0.0024 | -0.0446 | -0.0642 |  | -0.0748 |  |  | -0.0581 | -0.0208 | -0.0113 | -0.0133 |  | 
4 | O=C(c1cc(Cc2n[nH]c(=O)c3ccccc23)ccc1F)N1CCN(C(=O)C2CC2)CC1 [Olaparib] + CN(CC[C@H](CSC1=CC=CC=C1)NC2=C(C=C(C=C2)S(=O)(=O)NC(=O)C3=CC=C(C=C3)N4CCC(CC4)[C@H](C5=CC=CC=C5C6=CC=C(C=C6)Cl)O)S(=O)(=O)C(F)(F)F)CCO [AZD4320] (first compound max 10 µM, 7x7, partner max 1 µM) | 0.951 | -0.043 |  | -0.0001 | 0.0073 | -0.0469 |  | -0.0365 |  |  | -0.0436 | -0.041 | -0.0091 | -0.0529 |  | 
5 | CS(=O)(=O)CCNCc1ccc(-c2ccc3ncnc(Nc4ccc(OCc5cccc(F)c5)c(Cl)c4)c3c2)o1 [Lapatinib] + NC1(c2ccc(-c3nc4ccn5c(=O)[nH]nc5c4cc3-c3ccccc3)cc2)CCC1 [MK-2206] (first compound max 10 µM, 7x7, partner max 10 µM) | 0.868 | 0.0357 |  | 0.0563 | 0.0833 | -0.031 |  | -0.0572 |  |  | 0.0408 | 0.0246 | -0.0031 | 0.0188 |  | 
6 | COc1nnc2ccc(N3CCC(c4ccc(OCCN5CCN(C)C(=O)[C@H]5C)cc4)CC3)nn12 [AZD5153] + CN(CC[C@H](CSC1=CC=CC=C1)NC2=C(C=C(C=C2)S(=O)(=O)NC(=O)C3=CC=C(C=C3)N4CCC(CC4)[C@H](C5=CC=CC=C5C6=CC=C(C=C6)Cl)O)S(=O)(=O)C(F)(F)F)CCO [AZD4320] (first compound max 1 µM, 7x7, partner max 1 µM) |  |  | 0.0382 |  |  |  | 0.0023 |  | 0.0211 | 0.0941 |  |  | 0.0183 | 0.0176 | 0.073 | 0.0831
7 | Cc1c2c(nn1C)CSCc1cc(n(C)n1)CSc1cc(c3ccccc3c1)OCCCc1c(C(=O)O)n(C)c3c-2c(Cl)ccc13 [AZD5991] + CC(=O)O[C@H]1C(=O)[C@@]2(C)[C@H]([C@H](OC(=O)c3ccccc3)[C@]3(O)C[C@H](OC(=O)[C@H](O)[C@@H](NC(=O)c4ccccc4)c4ccccc4)C(C)=C1C3(C)C)[C@]1(OC(C)=O)CO[C@@H]1C[C@@H]2O [Paclitaxel] (first compound max 1 µM, 7x7, partner max 3 µM) | 0.453 | 0.0252 |  | 0.102 | 0.0763 | -0.0107 |  | -0.0449 |  |  | -0.0159 | 0.0058 | -0.0149 | 0.0017 |  | 
8 | C[C@@H](Nc1cc(F)cc(F)c1)c1cc(C(=O)N(C)C)cc2c(=O)cc(N3CCOCC3)oc12 [AZD8186] + CC(=O)c1c(C)c2cnc(Nc3ccc(N4CCNCC4)cn3)nc2n(C2CCCC2)c1=O [Palbociclib] (first compound max 10 µM, 7x7, partner max 10 µM) | 0.802 | 0.0763 |  | -0.0148 | 0.101 | -0.0096 |  | 0.0814 |  |  | -0.0035 | 0.0108 | 0.0781 | 0.04 |  | 
9 | CC(=O)c1c(C)c2cnc(Nc3ccc(N4CCNCC4)cn3)nc2n(C2CCCC2)c1=O [Palbociclib] + CN(CC[C@H](CSC1=CC=CC=C1)NC2=C(C=C(C=C2)S(=O)(=O)NC(=O)C3=CC=C(C=C3)N4CCC(CC4)[C@H](C5=CC=CC=C5C6=CC=C(C=C6)Cl)O)S(=O)(=O)C(F)(F)F)CCO [AZD4320] (first compound max 10 µM, 7x7, partner max 1 µM) |  |  | -0.0456 |  |  |  | -0.066 |  | -0.0853 | -0.108 |  |  | -0.0569 | -0.0713 | -0.0184 | 0.019
10 | CS(=O)(=O)CCNCc1ccc(-c2ccc3ncnc(Nc4ccc(OCc5cccc(F)c5)c(Cl)c4)c3c2)o1 [Lapatinib] + Cn1cnc2c(F)c(Nc3ccc(Br)cc3Cl)c(C(=O)NOCCO)cc21 [Selumetinib] (first compound max 10 µM, 7x7, partner max 10 µM) | 0.257 | -0.0013 |  | 0.0577 | 0.0681 | -0.0514 |  | 0.0129 |  |  | 0.0708 | -0.0391 | -0.0348 | -0.0418 |  | 
11 | CN(CCO)CC[C@H](CSc1ccccc1)Nc1ccc(S(=O)(=O)NC(=O)c2ccc(N3CCC([C@@H](O)c4ccccc4-c4ccc(Cl)cc4)CC3)cc2)cc1S(=O)(=O)C(F)(F)F [AZD4320] + CS(=O)(=O)CCNCc1ccc(-c2ccc3ncnc(Nc4ccc(OCc5cccc(F)c5)c(Cl)c4)c3c2)o1 [Lapatinib] (first compound max 1 µM, 7x7, partner max 10 µM) | 0.982 | 0.0449 |  | 0.0728 | 0.105 | -0.0082 |  | 0.0316 |  |  | -0.0185 | 0.0132 | 0.0275 | -0.0269 |  | 
12 | C[C@@H](Nc1cc(F)cc(F)c1)c1cc(C(=O)N(C)C)cc2c(=O)cc(N3CCOCC3)oc12 [AZD8186] + C1CN(CCC1(C(=O)N[C@@H](CCO)C2=CC=C(C=C2)Cl)N)C3=NC=NC4=C3C=CN4 [AZD5363] (first compound max 10 µM, 7x7, partner max 10 µM) | 0.525 | -0.0164 |  | -0.0108 | -0.016 | -0.0281 |  | -0.0455 |  |  | -0.0302 | -0.0589 | 0.011 | -0.0235 |  | 
13 | O=C(c1cc(Cc2n[nH]c(=O)c3ccccc23)ccc1F)N1CCN(C(=O)C2CC2)CC1 [Olaparib] + Cc1c2c(nn1C)CSCc1cc(n(C)n1)CSc1cc(c3ccccc3c1)OCCCc1c(C(=O)O)n(C)c3c-2c(Cl)ccc13 [AZD5991] (first compound max 10 µM, 7x7, partner max 1 µM) | 0.149 | -0.0467 |  | -0.0155 | -0.0325 | -0.0525 |  | -0.0478 |  |  | -0.0396 | -0.0502 | -0.0264 | -0.0585 |  | 
14 | Cc1c2c(nn1C)CSCc1cc(n(C)n1)CSc1cc(c3ccccc3c1)OCCCc1c(C(=O)O)n(C)c3c-2c(Cl)ccc13 [AZD5991] + CS(=O)(=O)CCNCc1ccc(-c2ccc3ncnc(Nc4ccc(OCc5cccc(F)c5)c(Cl)c4)c3c2)o1 [Lapatinib] (first compound max 1 µM, 7x7, partner max 10 µM) | 0.332 | 0.019 |  | 0.04 | 0.0331 | -0.0552 |  | -0.0651 |  |  | -0.0155 | 0.0021 | 0.0109 | -0.0014 |  | 
15 | C=CCn1c(=O)c2cnc(Nc3ccc(N4CCN(C)CC4)cc3)nc2n1-c1cccc(C(C)(C)O)n1 [AZD1775] + CCc1c2c(nc3ccc(O)cc13)-c1cc3c(c(=O)n1C2)COC(=O)[C@]3(O)CC [SN-38] (first compound max 1 µM, partner max 0.3 µM) | 0.668 | -0.0442 |  | -0.0068 | -0.0287 | -0.079 |  | -0.103 |  |  | -0.0374 | -0.0478 | -0.0409 | -0.0375 |  | 
16 | Cc1c2c(nn1C)CSCc1cc(n(C)n1)CSc1cc(c3ccccc3c1)OCCCc1c(C(=O)O)n(C)c3c-2c(Cl)ccc13 [AZD5991] + Nc1ccn([C@@H]2O[C@H](CO)[C@@H](O)C2(F)F)c(=O)n1 [Gemcitabine] (first compound max 1 µM, 7x7, partner max 0.3 µM) | 0.42 | 0.0842 |  | 0.0148 | -0.0715 | -0.0373 |  | -0.0245 |  |  | -0.009 | -0.0707 | 0.0115 | -0.0117 |  | 
17 | C[C@@H](Oc1cc(-c2cnn(C3CCNCC3)c2)cnc1N)c1c(Cl)ccc(F)c1Cl [Crizotinib] + Cn1cnc2c(F)c(Nc3ccc(Br)cc3Cl)c(C(=O)NOCCO)cc21 [Selumetinib] (first compound max 10 µM, 7x7, partner max 10 µM) | 0.646 | -0.0653 |  | 0.0011 | -0.0443 | -0.0392 |  | -0.0034 |  |  | -0.042 | -0.0007 | 0.0035 | 0.0411 |  | 
18 | O=C(c1cc(Cc2n[nH]c(=O)c3ccccc23)ccc1F)N1CCN(C(=O)C2CC2)CC1 [Olaparib] + CC1(C)CCC(CN2CCN(c3ccc(C(=O)NS(=O)(=O)c4ccc(NCC5CCOCC5)c([N+](=O)[O-])c4)c(Oc4cnc5[nH]ccc5c4)c3)CC2)=C(c2ccc(Cl)cc2)C1 [Venetoclax] (first compound max 10 µM, 7x7, partner max 1 µM) | 0.169 | -0.0096 |  | -0.0483 | -0.0111 | -0.0355 |  | -0.0534 |  |  | -0.0346 | -0.0292 | -0.0248 | -0.0521 |  | 
